Data on four compounds can be found in patent publication US20150110847A1, “Substrate Mediated Enzymes Prodrug Therapy” (Aarhus Universitet, priority 2012, published 2015).

One data set concerns cells cultured on μS PVA. The data set is described as follows: Viability of cells on μS PVA hydrogels with enzyme and/or prodrug (FIG. 17). The class given is cell-based. The note with it: full SMEPT conditions: μS PVA with immobilized enzyme and 1 μM SN-38 glucuronide. The source says:
FIG. 17: Viability of cells on μS hydrogels with enzyme and/or prodrug.

Data set [1] has as its system HepG2. The note with it: previously shown by the applicants; cited from earlier work.
The test system of data set [2] is HepG2. The data set is described as follows: SMEPT using static cell culture on LbL films, PrestoBlue cell viability (FIG. 21). Here is the method: Glass cover-slips. LbL assembly of PMA and PLL with incorporated enzyme was performed on glass cover-slips to evaluate the therapeutic effect of SN-38 under static conditions. Glass cover slips of 9 mm were sonicated in ethanol for 10 minutes, rinsed with ultrapure water, and dried with argon prior to UV sterilization for 20 minutes in a 48 well plate. Solutions of PLL and PMA, were incubated at 37° C. for 10 min prior to film assembly. Alternating layers were composed as (PLL/PMA)2.5-b-glucuronidase-(PMA/PLL)2 or […] for films without enzyme. Each layer was allowed to adsorb for 10 min at 37° C. followed by a washing step in HEPES buffer. The enzyme b-glucuronidase was added at a concentration of 20 μg/mL in HEPES buffer solution.
(§1) Cell Culture. The hepatocellular carcinoma cell line (HepG2) was used for all cell experiments. HEPG2 were cultured in a 75 cm^2 culture flask (3E6 cells/flask) in 10 mL medium (Minimum Essential Medium Eagle (MEME) supplemented with 10% fetal bovine serum (FCB), 1% penicillin and streptomycin, 1% non-essential amino acids, and 2 mM L-glutamine) and incubated at 37° C. and 5% CO2.
Static cell culture. The LbL coated glass slides were UV sterilized for 10 minutes prior to cell seeding. HepG2 cells with a starting density of 75.000 cells in 300 μL were seeded per well. The cells were allowed to adhere overnight before adding the (pro)drug SN-38 of 1 μM and incubate for 48 h. 200 μL of fresh media was added together with 20 μL of PrestoBlue cell viability reagent and evaluated on an EnspireMultilabel Plate Reader after 30 minutes of incubation.
A glucuronide prodrug of a commercial anticancer drug, SN-38, was used. […] Further, hepatocellular carcinoma (HCC) is a condition successfully addressed using tools for localized drug delivery, but solitary drugs are currently accommodated for this mode of delivery.
Hepatocytes were seeded on the biocatalytic film (PLL/PMA)2.5/β-Glu/(PGA/PMA)2 and allowed to adhere overnight before refreshing the media and adding the (pro)drug at 1 μM.

Data set [3] relates to HepG2. Here is the method: as §1
For data set [4], the system named is HepG2. Description: Cell viability in three sequentially connected perfusion chambers, site-specific delivery (FIG. 25). The data set is classed as cell-based. Conditions: for viability of cells reduced to: 1 μM, 4 h flow, further 48 h culture. From the text:
For the evaluation of drug delivery to subsequent chambers tubings were connected so that the flow of solution would enter the first chamber containing PEMs with enzyme and subsequent flow to chamber 2 and chamber 3 with cell culture on TCPS.
It is assumed that when the drug is synthesized within the coating immediately underneath the cultured cells, through increased local concentration of the drug, the synthesized therapeutic would exert a higher local effect in adhering cells as compared to the cells growing “downstream”. […] Outlet from chamber 1 was connected to the inlet for chamber 2, and in turn, outlet of chamber 2 was connected to the inlet of chamber 3. Hepatocytes were seeded in all three chambers, but only the cells in chamber 1 were cultured on biocatalytic coatings. Solution of SN-38 glucuronide (1 μM in cell culture media) was administered to the interconnected perfusion chambers at constant shear stress for 4 h. Subsequently, the perfusion chambers were flushed with (pro)drug-free media and the cells were cultured for a further 48 h, prior to the assessment of the cell viability.
The viability of cells cultured on biocatalytic coatings was reduced to ˜30% verifying a pronounced therapeutic response achieved via SMEPT under flow conditions. Viability of cells in chamber two was reduced to ˜60% thus being much higher than that for cells cultured on biocatalytic coatings. Taking into account dose response of HepG2 cells to SN-38, viability difference between 30% and 60% corresponds to ˜10-fold difference in the concentration of the drug used for the treatment. […] It is therefore highly likely that local therapeutic effect would exceed that at “downstream” location to a greater extent than illustrated in FIG. 25. Our data provide experimental proof of the site-specific drug delivery achieved via SMEPT and thus, illustrate therapeutic advantage associated with this technique.

The next data set has as its system b-Galactosidase. Here is the method:
Microstructured PVA hydrogels were assembled using polymer solutions containing b-Galactosidase (1 g/L), stabilized using 0.5 M sodium sulfate and incubated in PBS for 1 h prior analysis. We used a substrate for b-Gal conversion of which affords nitric oxide (NO), a potent and multi-functional signaling and therapeutic molecule. This radical—molecule has a very short half-life and is rapidly converted into nitrite/nitrate, and the latter are conventionally used to quantify the levels of generated nitric oxide. Analysis of nitrite is conducted via a Griess assay, i.e. a colorimetric test establishing a linear correlation between the concentration of nitrite and absorbance at 530 nm; cf. FIG. 31.
b-Gal-NONOate was administered onto the enzyme-functionalized hydrogels at varied concentrations and incubated for 30 min, upon which the levels of […] were quantified via the Griess assay.

The target of a further data set is T1, b-glucuronidase (Escherichia coli, UniProt P05804).
T1 construct: purchased
The data set is described as follows: Prodrug conversion in flow by biocatalytic LbL films in perfusion chambers (FIG. 23). The data set is classed as biochemical. Conditions: constant flow. Here is the method: For evaluation of the enzymatic activity the prodrug fluorescein di-glucuronide, FdG, of 5 μg/mL was added to syringes and connected to the coated perfusion chambers. A syringe pump was used to control the shear stress using 0.15, 0.074, 0.03 dyn/cm^2. An “on demand” conversion of prodrug under flow conditions a syringe with buffer was used as a control. The “on” and “off” was then controlled by the switch of syringes to the given μ-slide chamber.
For multiple layers of enzyme the PEMs were constructed as (PMA/PLL)4 keeping the total amount of layers constant and adding the enzyme in between each layer of PLL.
All evaluations were measured out on the PlateReader by collecting aliquots from the outlet tubing during the experiment and transferred to a 96-well pate.
A unique opportunity associated with multilayered surface coatings relates to the possibility to build films with a desired thickness for which polymer adsorption can be performed to a desired number of layers. Similarly, LbL deposition would allow controlling the amount of enzyme within the thin film through a facile change in the number of protein deposition steps. To show this, polymer coatings were assembled using one or three layers of adsorbed β-Glu keeping the total number of polymer layers constant. […] While a single layer of the enzyme achieved a <[…] concentration of the product, three protein layers suffice for a build-up of product concentration to over 30 nM, all achieved under dynamic, constant flow conditions.

Data set [5] deals with HepG2. The data set is described as follows: Cellular internalization of in situ generated fluorescent product, flow cytometry (FIG. 4). Conditions: for levels of cellular fluorescence (cargo internalization): enzyme in μS PVA hydrogel, versus solution based conversion; for levels of cellular fluorescence (cargo internalization) / fluorescence of cultured cells: 2.5 μg/mL, 24 h; for fluorescence of cultured cells: prodrug in absence of the enzyme. The data set is classed as cell-based. Here is the method: FIG. 4. Utility of SMEPT in generation and cellular internalization of in situ produced product is verified through quantification of fluorescence of hepatic cells cultured on the μS PVA hydrogels. […] Experimental conditions: (A) 1 g/L enzyme in the polymer solution; initial concentration of fluorescein diglucuronide, 2.5 μg/mL; incubation time 24 h; (B) 1 g/L enzyme in the polymer solution; initial concentration of fluorescein diglucuronide 0.25 (top) and 0.025 (bottom) […].
Towards this goal, hydrogels were prepared using solutions of PVA supplemented with a synthetic polypeptide, poly-L-lysine (PLL). […] Enzyme- and PLL-containing PVA hydrogels were assembled as described above, after which time μS thin films were used as substrates for adhesion and proliferation of a model cell line, HepG2. […] Furthermore, advanced efforts in engineering of liver tissue require co-culturing of mammalian cells (e.g. hepatocytes and Kupffer cells), a challenge which is successfully addressed using μS and micro-patterned substrates. These notions together justify the use of a hepatic cell line and μS PVA hydrogels for the development of SMEPT.
Initial, internalization of a fluorescent reporter molecule produced via SMEPT and via a solution-based conversion was compared. To achieve this, the cells were seeded on μS PVA hydrogels and were allowed 24 h for attachment, after which time the media was changed to fresh media and, for solution based prodrug conversion, equivalent amount of the enzyme as that contained within μS PVA hydrogels was administered to the cultured cells. At this point, the samples were charged with fluorescein di-glucuronide to a 2.5 μg/mL concentration (3.65 μM). Upon 24 h incubation, fluorescence of the harvested cells was quantified using flow cytometry. […] We note that solution based prodrug conversion is used herein only as a measure to verify protein activity and utility of SMEPT. In the human body, β-glucuronidase has a limited spread and an activity markedly lower as compared to bacterial copy used in this study. The latter notion provides for a low level of “background” prodrug conversion and contributes to specificity of drug delivery achieved with the use of β-glucuronidase and glucuronide prodrugs, as documented for ADEPT and inherited by SMEPT.
For further characterization of SMEPT, the time course of cellular internalization of the in situ generated fluorescent reporter product was followed at two concentrations of the fluorogenic pro-drug, 0.025 and 0.25 μg/mL (36.5 and 365 nM, respectively). At specified time points, fluorescence of the detached cells was quantified using flow cytometry, FIG. 19B. […] Further to this, at each time point, higher pro-drug concentration affords a higher level of fluorescence registered in the cultured cells, i.e. a greater amount of internalized cargo. Together, these two graphs present time- and dose-dependent internalization of reporter cargo and illustrate the tools of control offered by SMEPT for substrate mediated drug delivery.
In general terms: In flow cytometry, cells or beads pass a laser one at a time.

Where two headings read alike, the source gives them in different places.

T1 sequence (P05804 whole entry): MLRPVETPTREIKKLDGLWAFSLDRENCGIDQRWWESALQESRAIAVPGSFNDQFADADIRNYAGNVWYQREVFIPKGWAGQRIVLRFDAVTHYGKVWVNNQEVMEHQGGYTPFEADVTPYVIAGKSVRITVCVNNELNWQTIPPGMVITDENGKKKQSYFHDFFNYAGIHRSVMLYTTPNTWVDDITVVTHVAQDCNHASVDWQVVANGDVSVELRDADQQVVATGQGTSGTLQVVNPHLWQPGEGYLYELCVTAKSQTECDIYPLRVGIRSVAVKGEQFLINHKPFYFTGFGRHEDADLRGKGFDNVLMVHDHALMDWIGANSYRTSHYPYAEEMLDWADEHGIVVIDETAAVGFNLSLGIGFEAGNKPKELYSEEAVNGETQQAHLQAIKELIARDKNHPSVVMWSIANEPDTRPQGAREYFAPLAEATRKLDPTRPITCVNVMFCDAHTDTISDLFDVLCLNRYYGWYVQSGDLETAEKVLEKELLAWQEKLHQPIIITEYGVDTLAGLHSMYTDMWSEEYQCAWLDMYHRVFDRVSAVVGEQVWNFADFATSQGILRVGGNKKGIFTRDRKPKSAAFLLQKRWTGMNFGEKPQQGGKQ

With `CCc1c2c(nc3ccc(O[C@@H]4O[C@H](C(=O)O)[C@@H](O)[C@H](O)[C@H]4O)cc13)-c1cc3c(c(=O)n1C2)COC(=O)[C@]3(O)CC` [SN-38 glucuronide], the “cytotoxic effect (viability of cells)” value in the data set with cells cultured on μS PVA was “cytotoxic effect which is comparable to the active drug SN-38”. In addition, the “inherent cytotoxic effects on hepatocytes” value in the data set with HepG2 [1] was “did not have an inherent cytotoxic effects on hepatocytes”. Further, the “cell viability reduced by” value with HepG2 [2] (SMEPT: hepatocytes on β-Glu-containing LbL film, 1 μM, 48 h incubation, compared to control) is approximately 80%. In addition, the “change in cell viability” value in the data set on HepG2 [2] (prodrug on (PLL/PMA)4.5 coatings, no enzyme incorporated, 1 μM, 48 h) is “minor albeit statistically significant decrease in the cell viability”. Further, in the data set with HepG2 [2] (solution based EPT: prodrug and enzyme both in solution, enzyme-free LbL films, 1 μM, 48 h), the “reduction in viability of the hepatocytes compared with SMEPT” value was “similar”. Besides, the “decrease in cell viability by” value with HepG2 [3] (1 μM, 4 h flow on biocatalytic film, then static drug-free culture, total 48 h, normalized to cells without (pro)drug) is on record as approximately 70%. The “viability of cells reduced to” value in the data set on HepG2 [4] (chamber 1, cells on biocatalytic coatings) is approximately 30%; in the data set with HepG2 [4] (chamber two, downstream, no biocatalytic coating), approximately 60%.

As for `CCc1c2c(nc3ccc(O)cc13)-c1cc3c(c(=O)n1C2)COC(=O)[C@]3(O)CC` [SN-38], the “reduction in viability of the hepatocytes compared with SMEPT” value in the data set with HepG2 [2] is listed as “similar”. Besides, in the data set on HepG2 [3], the “cell culture time required for a well-pronounced therapeutic effect” value is “at least 48 h” and the “time the presence of the drug was required for a pronounced therapeutic effect” value was not below 4 h. Also, the “difference in the concentration of the drug corresponding to viability difference between 30% and 60%” value in the data set on HepG2 [4] (from dose response of HepG2 cells to SN-38) is on record as approximately 10 fold.

In the case of `[O-]/[N+](=N\O[C@@H]1O[C@H](CO)[C@H](O)[C@H](O)[C@H]1O)N1CCCC1` [b-Gal-NONOate], in the data set on b-Galactosidase (absence of enzyme), the “prodrug conversion/drug production of NO” value is reported as “no prodrug conversion/drug production of NO is observed”. Besides, the administered dose converted entry in the data set with b-Galactosidase (within 30 min of incubation, b-Galactosidase PVA hydrogels) is “approximately 50%”.

Turning to `O=C1OC2(c3ccc(O[C@@H]4O[C@H](C(=O)O)[C@@H](O)[C@H](O)[C@H]4O)cc3Oc3cc(O[C@@H]4O[C@H](C(=O)O)[C@@H](O)[C@H](O)[C@H]4O)ccc32)c2ccccc21` [fluorescein di-glucuronide], the “amount of product synthesized in unit time, 3 versus 1 layers of adsorbed protein” value at b-glucuronidase (identical prodrug concentration) is given as “approximately 3 ×”. The “concentration of the product” value was less than 10 nm at b-glucuronidase (single layer of the enzyme) and “over 30 nM” at b-glucuronidase (three protein layers). In addition, the “fluorescence of cells over time” value with HepG2 [5] (SMEPT, 0.025 and 0.25 μg/mL, earliest time-point 1 h) is “pronounced increase in the fluorescence of cells”. Also, the “levels of cellular fluorescence (cargo internalization)” value in the data set with HepG2 [5] (SMEPT) was “comparable to that produced by a solution based administration”; with HepG2 [5] (SMEPT, listed as fluorescein diglucuronide), “comparable levels of fluorescence of cultured cells”. In addition, the “fluorescence of cultured cells” value was “fluorescence identical to pristine, non-treated cells” in the data set on HepG2 [5] and “negligible change in the fluorescence of cultured cells” in the data set with HepG2 [5] (listed as fluorescein diglucuronide).
